From article PMC3231123, “A Bacterial Biosensor for Oxidative Stress Using the Constitutively Expressed Redox-Sensitive Protein roGFP2” (Sensors (Basel, Switzerland), 2010)

Molecular target: T1, roGFP2 (Aequorea victoria, UniProt P42212, C48S/S65T/Q80R/S147C/Q204C)
T1 construct: gene GFP; redox-sensitive GFP mutant, His tag (pRSET-roGFP2), expressed in E. coli DH5alpha, Ni-NTA purified, DTT-reduced then desalted
Assay: […] nm excitation fluorescence ratio of isolated roGFP2, plate reader
Conditions: 1 ppm menadione; DTT-reduced roGFP2 1.39 ug/mL; 75 mM HEPES pH 7.0, 140 mM NaCl; monitored 5 min; oxidation of roGFP2, not reversible binding

For `CC1=CC(=O)c2ccccc2C1=O` [menadione, 2-methyl-1,4-naphtoquinone], which “% change of 400/490 nm ratio vs t = 0 at 1 ppm” value is on record?
The value was 9.1 to 29.4%.
